The values that follow come from PMC5589637, “New perspectives of cobalt tris(bipyridine) system: anti-cancer effect and its collateral sensitivity towards multidrug-resistant (MDR) cancers” (Oncotarget, 2017).

Experiment [1] concerns Atg7^−/− deficient MEFs. The experiment in a line: MTT cytotoxicity, Atg7 deficient MEFs. The settings on record: 72 h. It counts as cell-based, mouse. The text has this:
(§1) All cells were obtained from the American Type Culture Collection (Rockville, MD, USA) unless otherwise specified. Immortalized wild-type and Atg7-deficient mouse embryonic fibroblasts (MEFs) were kindly provided by Professor Masaaki Komatsu (Juntendo University, School of Medicine, Japan). Taxol-resistant types of MCF-7, HCT-8, A549 cancers cells and cisplatin-resistant SGC7901 cancer cells were purchased from KeyGEN BioTECH, China. Cisplatin-sensitive or –resistant A2780, OV2008 and C13 cancer cells were kindly provided by Prof. Benjamin Tsang (Department of Obstetrics and Gynecology and Department of Cellular and Molecular Medicine, University of Ottawa, Canada). HCT116 p53^+/+ and p53^−/− isogenic human colon cancer cells were kindly provided by Professor Bert Vogelstein (Ludwig Center at Johns Hopkins, Howard Hughes Medical Institute, USA). […]
(§2) All tested compounds were dissolved in DMSO at a final concentration of 50 mmol/L and stored at −20°C before use. Cytotoxicity was assessed by using the 3-(4,5-dimethylthiazol-2-yl)-2, 5-diphenyltetrazolium bromide (MTT) (5.0 mg/ml) assay as previously described. […] A570 nm was then determined in each well on the next day. The percentage of cell viability was calculated using the following formula: Cell viability (%) = Atreated/Acontrol × 100. […]

The test system of experiment [2] is Atg7^+/+ wild-type MEFs. In words: MTT cytotoxicity, Atg7 wild-type MEFs. It counts as cell-based, mouse. The settings on record: 72 h.
Source text: as §1, §2

For experiment [3], the system named is A2780 cisplatin-resistant cancer cells. The experiment in a line: MTT cytotoxicity, cisplatin-resistant A2780. It counts as cell-based. The text has this:
(§3) All cells were obtained from the American Type Culture Collection (Rockville, MD, USA) unless otherwise specified. Immortalized wild-type and Atg7-deficient mouse embryonic fibroblasts (MEFs) were kindly provided by Professor Masaaki Komatsu (Juntendo University, School of Medicine, Japan). Taxol-resistant types of MCF-7, HCT-8, A549 cancers cells and cisplatin-resistant SGC7901 cancer cells were purchased from KeyGEN BioTECH, China. Cisplatin-sensitive or –resistant A2780, OV2008 and C13 cancer cells were kindly provided by Prof. Benjamin Tsang (Department of Obstetrics and Gynecology and Department of Cellular and Molecular Medicine, University of Ottawa, Canada). HCT116 p53^+/+ and p53^−/− isogenic human colon cancer cells were kindly provided by Professor Bert Vogelstein (Ludwig Center at Johns Hopkins, Howard Hughes Medical Institute, USA). All media were supplemented with 10% fetal bovine serum and antibiotics penicillin (50 U/ml) and streptomycin (50 μg/ml; Invitrogen, Paisley, Scotland, UK). All cell cultures were incubated at 37°C in a 5% humidified CO2 incubator.
(§4) All tested compounds were dissolved in DMSO at a final concentration of 50 mmol/L and stored at −20°C before use. Cytotoxicity was assessed by using the 3-(4,5-dimethylthiazol-2-yl)-2, 5-diphenyltetrazolium bromide (MTT) (5.0 mg/ml) assay as previously described. Briefly, 4×10^3 cells per well were seeded in 96-well plates before drug treatments. After overnight culture, the cells were then exposed to different concentrations of selected compounds ([…]) for 72 hours. Cells without drug treatment were used as control. Subsequently, MTT (10 μL) solution was added to each well and incubated at 37°C for 4 hours followed by the addition of 100 μL solubilization buffer (10%SDS in 0.01 mol/L HCl) and overnight incubation. A570 nm was then determined in each well on the next day. The percentage of cell viability was calculated using the following formula: Cell viability (%) = Atreated/Acontrol × 100. Data were obtained from three independent experiments.

The test system of experiment [4] is HCT-8 taxol-resistant cancer cells. The experiment in a line: MTT cytotoxicity, taxol-resistant HCT-8. It counts as cell-based.
Source text: as §3, §4

For experiment [5], the system named is HeLa cancer cells. The experiment in a line: Flow cytometry cell-cycle analysis. Type of experiment: cell-based. The settings on record: 24 h, propidium iodide flow cytometry. The text has this:
Cobalt complex 2-treated cells were harvested and analysed by flow cytometry using propidium iodide staining (BD Biosciences, San Jose, CA, USA) according to the manufacturer instructions. Cell population in different phase of cell cycle were quantitatively counted by a flow cytometer (BD FACSAria III, San Jose, CA, USA).
In general terms: A flow cytometer gives signals particle by particle.

The test system of experiment [6] is HeLa cancer cells. In words: Endogenous autophagy detection (LC3-II puncta immunofluorescence). Type of experiment: cell-based. To be noted: 24 h. On the procedure:
The detection of endogenous LC3 was conducted using immunofluorescence staining method as described below. In brief, cobalt complex 2-treated HeLa cancer cells on cover slips were fixed with 4% paraformaldehyde (Sigma) for 20 min at room temperature and then rinsed with PBS. Coverslips were immersed in methanol at room temperature for 2 min. After washing with PBS, the cells were then incubated with anti-LC3 (1:200) in TBST (100 mM Tris HCl, pH 7.5, 150 mM NaCl, 0.05% Tween 20 and 5% BSA) overnight at 4 °C. After washing with PBS, the cells were incubated with anti-mouse secondary antibody (TRITC) (1:200) in TBST containing 5% BSA at 37°C for 1 hour in the dark. The coverslips were then mounted with FluorSave™ mounting media (Calbiochem, San Diego, CA, USA) for fluorescence imaging and localization of LC3 autophagosomes were captured under the API Delta Vision Live-cell Imaging System (Applied Precision Inc.,GE Healthcare Company, Washington, USA). To quantify autophagy, guidelines were followed. The percentage of cells with autophagic induction was calculated by the number of the cells with increased formation of punctate LC3 fluorescence dots (≥ 10 dots/cell) over the total number of immunofluorescence-positive cells in the same field. A minimum of 1000 cells from randomly selected fields were scored.

Experiment [7] concerns HCT116 p53^+/+ colon cancer cells. In words: MTT cytotoxicity, HCT116 p53+/+. It counts as cell-based, human. To be noted: 72 h.
Source text: as §3, §4

The subject of experiment [8] is HeLa (cervical cancer) cells. In words: MTT cytotoxicity assay, HeLa. It counts as cell-based. The settings on record: 72 h. The protocol:
as §4

Experiment [9] has as its system H1299 (lung cancer) cells. The experiment in a line: MTT cytotoxicity assay, H1299. Type of experiment: cell-based, human. To be noted: 72 h. On the procedure:
as §4
(In general: Tetrazolium assays rely on reduction of a dye to a coloured formazan, in cell work by metabolically active cells.)

Experiment [10] has as its system Hep3B (liver cancer) cells. The experiment in a line: MTT cytotoxicity assay, Hep 3B. It counts as cell-based. To be noted: 72 h. The protocol: as §4
Experiment [11] deals with H1299 lung cancer cells. In words: Cell invasion assay (ECMatrix chamber). Type of experiment: cell-based, human. To be noted: H1299, 72 h, sub-lethal doses, OD 560 nm. On the procedure:
The H1299 cancer cell invasion assay was performed in a Cell Invasion Chamber, a 24-well tissue culture plate with cell culture inserts that contain an 8 μm pore size polycarbonate membrane over a thin layer of dried ECMatrix^TM (CHEMICON). H1299 cells (15000 cells/well) were re-suspended in serum-free medium and incubated in an invasion chamber insert with different concentrations of cobalt complex 2 for 72 hours, while the lower chamber contained medium with 10% FBS. The cells invaded through the ECM layer to the bottom of the polycarbonate membrane were labelled with Cell Stain provided in the kit for 20 min at room temperature. The non-invading cells were gently removed from the interior of the inserts by using a cotton-tipped swab. The number of invaded cells was counted through the microscope and quantified by dissolving stained cells in 10% acetic acid (200 μL/well). The colorimetric reading of the solute mixture was determined by spectrophotometer at OD 560 nm.

Experiment [12] relates to A549 (EGFR wild-type lung cancer) cells. In words: MTT cytotoxicity assay, A549. Type of experiment: cell-based. The settings on record: 72 h. The protocol:
as §4

For experiment [13], the system named is H1975 (EGFR mutant lung cancer) cells. In words: MTT cytotoxicity assay, H1975. It counts as cell-based. To be noted: 72 h. On the procedure: as §4

Broadly, the IC50 is the point on the concentration scale where inhibition reaches its midpoint. Read a high IC50 as lower potency. As for `Cc1ccnc(-c2cc(C)ccn2)c1.Cc1ccnc(-c2cc(C)ccn2)c1.Cc1ccnc(-c2cc(C)ccn2)c1.F[P-](F)(F)(F)(F)F.F[P-](F)(F)(F)(F)F.F[P-](F)(F)(F)(F)F.[Co+3]` [complex 2, [Co^III(4,4’-Me2-bpy)3](PF6)3], the IC50 in experiment [1] was found to be 14 µM; in [2], 4.84 µM; in experiment [3] (A2780 cisplatin-resistant, MTT, 72 h) it was 10.7 µM; in [4] (HCT-8 taxol-resistant, MTT, 72 h), 1.22 µM; in [7], 15.4 µM; in experiment [8], 11.9 µM. The IC50 in [9] was determined as 2.84 µM; in experiment [10] it was 3.7 µM; in experiment [12] it was 7.86 µM; in experiment [13], 8.84 µM. In addition, the “Resistant Factor, A2780” value in experiment [3] (cisplatin-resistant over cisplatin-sensitive IC50, A2780) stood at 0.87. Further, the “Resistant Factor, HCT-8” value in [4] (IC50 of taxol-resistant cells over IC50 of taxol-sensitive cells, HCT-8) came to 0.36. In [5] (high concentration), the “effect on cell cycle progression, high concentration” value was “arrest HeLa cancer cell in S-phase”. In addition, in experiment [5] (low concentration), the “effect on cell cycle progression, low concentration” value was “negligible effect on cell cycle progression”. The “autophagy induction (percentage of cells with endogenous LC3-II puncta formation)” value in [6] was “induce autophagy in dose-dependent manner”. In addition, the “cell invasion (absorbance signal of invaded cells)” value in experiment [11] is “dose-dependently decrease the absorbance signal”.
